In US12344572B2, “Cationic lipids and transfection methods” (Factor Bioscience Inc., priority 2019, dated 2025):

Columns and labels:
[1] = Particle size of DLinDHS/RNA complexes by dynamic light scattering; format: physicochemical; conditions: DLinDHS/RNA complexes formed in aqueous mRNA solution with varied sodium chloride concentration
[2] = system: primary human epidermal keratinocytes; test: Gene editing of keratinocytes with RNA encoding gene-editing proteins, T7E1 endonuclease digestion; format: cell-based; conditions: RNA encoding gene-editing proteins complexed with lipid
[3] = system: human peripheral blood mononuclear cells (hPBMCs); test: Transfection of human peripheral blood mononuclear cells with GFP-encoding RNA complexed with lipid; format: cell-based; conditions: images 16 hours following transfection; both lipid-to-RNA mass ratios tested
[4] = system: confluent layer of primary human epidermal keratinocytes; test: Transfection of a confluent layer of primary human epidermal keratinocytes with GFP-encoding RNA; format: cell-based; conditions: images 24 hours following transfection; both lipid-to-RNA mass ratios tested
[5] = system: RNase A; test: Protection of mRNA from RNase A degradation, GFP readout in keratinocytes; format: cell-based; conditions: DLinDHS/mRNA complexes treated with RNase A after complexation, 2.5 μg/μg, 20,000 keratinocytes in serum-free medium
[6] = system: human epidermal keratinocytes; test: GFP mRNA delivery to keratinocytes in serum-free medium or 50% FBS; format: cell-based; conditions: 20,000 keratinocytes, 0% FBS or 50% FBS, images 16 hours following transfection; DLinDHS at 2.5 μg/μg lipid-to-RNA; LNPs 300 ng final mRNA
[7] = system: primary human adult dermal fibroblasts; test: Transfection of primary human adult dermal fibroblasts with GFP-encoding RNA; format: cell-based; conditions: images 16 hours following transfection; both lipid-to-RNA mass ratios tested
[8] = system: primary human epidermal keratinocytes; test: Transfection of primary human epidermal keratinocytes with GFP-encoding RNA complexed with lipid, in 100% FBS; format: cell-based
[9] = Zeta potential of DLinDHS/RNA complexes versus buffer pH; format: physicochemical
[10] = system: primary human dermal fibroblasts; test: Time-lapse fluorescence imaging of labeled RNA / labeled lipid uptake in dermal fibroblasts; format: cell-based
[11] = system: Rat; test: mRNA delivery in rat by intradermal injection, anti-GFP histology; format: in vivo; conditions: GFP mRNA complexed at 2.5 μg/μg, necropsy 48 hours
[12] = system: human subject; test: In vivo mRNA delivery to a human subject by intradermal injection, confocal fluorescence microscopy of biopsy; conditions: human male, ventral forearm, 400 ng RNA in 20 μL, 2.5 μg/μg, biopsy after 48 hours

CCCCC/C=C\C/C=C\CCCCCCCCN(CCCCN(CCCCCCCC/C=C\C/C=C\CCCCC)CC(O)CN)CC(O)CN (centres unmarked) [DHDLinS, N^1,N^4-dilinoleyl-N^1,N^4-di-(2-hydroxy-3-aminopropyl)-diaminobutane]
particle size of lipoplex (Z-average, DLS) [1]: ionic-strength dependent | gene-editing efficiency [2]: gene edited at high efficiency | transfection of hPBMCs (GFP fluorescence) [3]: effectively transfected hPBMCs at both lipid-to-RNA mass ratios tested | transfection of confluent keratinocytes (GFP fluorescence) [4]: effectively transfected | protection of complexed RNA from RNase A degradation (GFP expression) [5]: protected from degradation | mRNA delivery in serum (GFP fluorescence) [6]: efficiently delivers mRNA in 50% serum | transfection of adult dermal fibroblasts (GFP fluorescence) [7]: effectively transfected | transfection of keratinocytes (GFP fluorescence) ([8]; 400 ng per well GFP RNA, complexation in DMEM, transfection in 100% FBS, images 8 hours after transfection, lipid without acetone purification): transfected with high efficiency | lipid-to-RNA mass ratios at which minimal increase in fluorescence signal was observed ([8]; DHDLinS purified by extraction with acetone, keratinocytes, images 16 hours following transfection): greater than 2 μg/μg | time after transfection at which a fluorescent signal was detected ([8]; experiment of FIG. 1, keratinocytes, 100% FBS): one | dependence of zeta potential on pH ([9]; DLinDHS/RNA lipoplexes diluted into 20 mM citrate pH 3.0-6.0 or 20 mM phosphate pH 7.4): pH-dependent | zeta potential ([9]; DLinDHS/RNA lipoplexes, 2.5 μg/μg, 20 mM phosphate, pH 7.4): −22.1 mV | time after transfection at which protein expression begins ([10]; 100 ng GFP mRNA, 2.5 μg/μg, 20,000 fibroblasts in 10% FBS): ≤ 2.5 h | time to detection of mRNA in cytoplasm after contact with lipoplexes ([10]; 100 ng GFP mRNA, 20% Cy5-labeled, 2.5 μg/μg, 20,000 fibroblasts in 10% FBS): ≤ 50 min | contact of labeled lipid with cells ([10]; BODIPY-labeled DLinDHS (10:1), 200 ng GFP mRNA, fibroblasts): contacts cells within minutes after transfection | reporter protein (GFP) expression in tissue [11]: localized expression in the dermal layer | reporter protein (RFP) expression in skin [12]: RFP-positive cells that have a morphology consistent with that of fibroblasts
